Measurements reported in US7030245B2, “Antidepressant azahetorocyclylmethyl derivatives of 7,8-dihydro-6H-5-oxa-1-aza-phenathrene” (Wyeth, priority 2001, dated 2006).
Counter-ions that a name gives are not always drawn.

Legend:
[1] = target: T1, cloned human 5-HT1A receptors (Homo sapiens, UniProt P08908); assay: 35S-GTPγS binding assay, 5-HT1A function; type: biochemical; conditions: for EC50: 35S-GTPγS binding to membranes containing cloned human 5-HT1A receptors; for Emax: maximum stimulatory effect on 35S-GTPγS binding, value in parentheses
T1 construct: expressed in transfected cells
T1 sequence (P08908 1-422): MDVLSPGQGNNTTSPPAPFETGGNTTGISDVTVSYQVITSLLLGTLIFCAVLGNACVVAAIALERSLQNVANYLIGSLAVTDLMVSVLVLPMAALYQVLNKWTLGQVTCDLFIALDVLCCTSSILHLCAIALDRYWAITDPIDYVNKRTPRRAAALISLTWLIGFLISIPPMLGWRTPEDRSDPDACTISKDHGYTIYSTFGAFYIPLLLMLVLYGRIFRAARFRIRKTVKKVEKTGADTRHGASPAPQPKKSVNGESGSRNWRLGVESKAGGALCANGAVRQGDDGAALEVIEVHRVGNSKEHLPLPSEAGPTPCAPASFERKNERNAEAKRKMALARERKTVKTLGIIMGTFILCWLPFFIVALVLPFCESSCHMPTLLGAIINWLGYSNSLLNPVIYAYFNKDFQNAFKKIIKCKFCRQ
Description: Agonist activity at 5-HT1A receptors was established by using a ^35S-GTPγS binding assay similar to that used by Lazareno and Birdsall (Br. J. Pharmacol. 109: 1120, 1993), in which the test compound's ability to affect the binding of ^35S-GTPγS to membranes containing cloned human 5-HT1A receptors was determined. Agonists produce an increase in binding whereas antagonists produce no increase but rather reverse the effects of the standard agonist 8-OHDPAT. The test compound's maximum stimulatory effect is represented as the Emax, while its potency is defined by the EC50.

[2] = target: T2, serotonin transporter (Rattus norvegicus, UniProt P31652); assay: 3H-paroxetine displacement, serotonin transporter affinity; type: binding
T2 construct: displace ^3H-paroxetine from male rat frontal cortical membranes; from tissue; host or cells: male rat frontal cortex membranes
T2 sequence (P31652 whole entry): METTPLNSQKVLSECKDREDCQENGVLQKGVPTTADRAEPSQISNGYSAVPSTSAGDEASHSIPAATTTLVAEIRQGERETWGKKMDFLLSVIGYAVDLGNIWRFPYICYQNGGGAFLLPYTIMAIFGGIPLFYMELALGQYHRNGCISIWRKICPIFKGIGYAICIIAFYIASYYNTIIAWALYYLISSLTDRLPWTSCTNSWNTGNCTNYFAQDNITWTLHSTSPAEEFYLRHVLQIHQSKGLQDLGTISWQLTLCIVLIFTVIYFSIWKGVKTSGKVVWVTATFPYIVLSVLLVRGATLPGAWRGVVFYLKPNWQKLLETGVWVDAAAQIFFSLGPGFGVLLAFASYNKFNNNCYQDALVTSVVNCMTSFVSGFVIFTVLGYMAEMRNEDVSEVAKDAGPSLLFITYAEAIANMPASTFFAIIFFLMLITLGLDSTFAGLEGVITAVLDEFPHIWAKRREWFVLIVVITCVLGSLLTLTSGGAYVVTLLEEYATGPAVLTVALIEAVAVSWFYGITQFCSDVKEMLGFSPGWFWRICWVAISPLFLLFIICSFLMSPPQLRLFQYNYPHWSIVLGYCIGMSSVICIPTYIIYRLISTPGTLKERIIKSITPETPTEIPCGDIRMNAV

[3] = target: T3, human 5-HT1A receptors (Homo sapiens, UniProt P08908); assay: [3H] 8-OHDPAT displacement, 5-HT1A receptor affinity; type: binding; conditions: displacement of [3H] 8-OHDPAT; CHO cells stably transfected with human 5-HT1A receptors
T3 construct: expressed in transfected cells; host or cells: CHO cells, stably transfected
T3 sequence (P08908 1-422): T1 sequence (P08908 1-422)
Source text: High affinity for the serotonin 5-HT1A receptor was established by testing the claimed compound's ability to displace [^3H] 8-OHDPAT (dipropylaminotetralin) from the 5-HT1A serotonin receptor following a modification of the procedure of Hall et al., J. Neurochem. 44, 1685 (1985) which utilizes CHO cells stably transfected with human 5-HT1A receptors.

| Structure (SMILES) | melting point | EC50 [1] | Emax [1] | Ki [2] | Ki [3] |
| --- | --- | --- | --- | --- | --- |
| Fc1ccc2[nH]cc(C3=CCN(C[C@H]4CCc5ccc6ncccc6c5O4)CC3)c2c1 (as salt: fumarate) [Example 3, (6R)-6-[4-(5-Fluoro-1H-indol-3-yl)-3,6-dihydro-2H-pyridin-1-ylmethyl]-7,8-dihydro-6H-5-oxa-1aza-phenanthrene] | 210 °C | – | – | – | – |
| Fc1ccc2[nH]cc(C3=CCN(CC4CCc5ccc6ncccc6c5O4)CC3)c2c1 (centres unmarked) (as salt: oxalate) [Example 1, 6-[4-(5-Fluoro-1H-indol-3-yl)-3,6-dihydro-2H-pyridin-1-ylmethyl]-7,8-dihydro-6H-5-oxa-1aza-phenanthrene] | 148 °C | – | – | – | – |
| Fc1ccc2[nH]cc(C3=CCN(C[C@@H]4CCc5ccc6ncccc6c5O4)CC3)c2c1 (as salt: oxalate) [Example 2, (6S)-6-[4-(5-Fluoro-1H-indol-3-yl)-3,6-dihydro-2H-pyridin-1-ylmethyl]-7,8-dihydro-6H-5-oxa-1aza-phenanthrene] | 210 °C | – | – | – | – |
| Fc1ccc2[nH]cc(C3=CCN(CC4CCc5ccc6ncccc6c5O4)CC3)c2c1 (centres unmarked) [Example 1, 6-[4-(5-Fluoro-1H-indol-3-yl)-3,6-dihydro-2H-pyridin-1-ylmethyl]-7,8-dihydro-6H-5-oxa-1aza-phenanthrene] | – | 0.103 µM | 49% | 0.008 µM | 0.0609 µM |
| Fc1ccc2[nH]cc(C3=CCN(C[C@@H]4CCc5ccc6ncccc6c5O4)CC3)c2c1 [Example 2, (6S)-6-[4-(5-Fluoro-1H-indol-3-yl)-3,6-dihydro-2H-pyridin-1-ylmethyl]-7,8-dihydro-6H-5-oxa-1aza-phenanthrene] | – | – | 5% | 0.00596 µM | 0.0886 µM |
| Fc1ccc2[nH]cc(C3=CCN(C[C@H]4CCc5ccc6ncccc6c5O4)CC3)c2c1 [Example 3, (6R)-6-[4-(5-Fluoro-1H-indol-3-yl)-3,6-dihydro-2H-pyridin-1-ylmethyl]-7,8-dihydro-6H-5-oxa-1aza-phenanthrene] | – | 0.0789 µM | 52% | 0.006 µM | 0.0823 µM |
